Data as given in ChEMBL document CHEMBL1909046, “DrugMatrix in vitro pharmacology data”.

Columns and labels:
[1] = molecular target: Delta-type opioid receptor (Homo sapiens, UniProt P41143); format: cell membranes, HEK293, Membrane; details: hek293
[2] = molecular target: T1, Neuropeptide Y receptor type 1 (Homo sapiens, UniProt P25929); format: cell membranes, Membrane; details: sk-n-mc
T1 sequence (P25929 whole entry): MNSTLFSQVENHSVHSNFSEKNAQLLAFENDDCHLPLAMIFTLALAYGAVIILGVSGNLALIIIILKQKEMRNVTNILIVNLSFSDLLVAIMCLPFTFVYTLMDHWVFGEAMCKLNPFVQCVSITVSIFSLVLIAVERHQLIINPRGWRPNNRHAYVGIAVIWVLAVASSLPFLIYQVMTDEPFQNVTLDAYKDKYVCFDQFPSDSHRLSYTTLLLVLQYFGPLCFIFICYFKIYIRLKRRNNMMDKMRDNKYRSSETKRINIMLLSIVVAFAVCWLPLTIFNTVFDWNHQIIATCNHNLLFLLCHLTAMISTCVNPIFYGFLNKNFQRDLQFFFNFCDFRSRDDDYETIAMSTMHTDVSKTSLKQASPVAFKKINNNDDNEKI

Cytochrome P450 1A2 = molecular target: T2, Cytochrome P450 1A2 (Homo sapiens, UniProt P05177); details: bti-tn-5b1-4
T2 sequence (P05177 whole entry): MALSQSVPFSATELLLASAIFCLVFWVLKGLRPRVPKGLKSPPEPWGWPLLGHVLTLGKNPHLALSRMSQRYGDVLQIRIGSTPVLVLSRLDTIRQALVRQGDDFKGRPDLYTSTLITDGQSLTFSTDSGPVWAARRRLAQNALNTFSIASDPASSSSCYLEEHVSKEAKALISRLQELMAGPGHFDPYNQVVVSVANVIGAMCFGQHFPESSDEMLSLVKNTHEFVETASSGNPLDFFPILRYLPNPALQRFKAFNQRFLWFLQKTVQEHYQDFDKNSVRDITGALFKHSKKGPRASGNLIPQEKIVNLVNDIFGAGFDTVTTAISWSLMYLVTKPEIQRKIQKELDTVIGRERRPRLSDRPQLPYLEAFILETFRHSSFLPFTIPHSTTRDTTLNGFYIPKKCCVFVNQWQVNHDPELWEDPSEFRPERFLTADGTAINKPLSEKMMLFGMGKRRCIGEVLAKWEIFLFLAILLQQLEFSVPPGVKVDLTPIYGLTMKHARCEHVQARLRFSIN

[3] = molecular target: T3, Polyunsaturated fatty acid lipoxygenase ALOX15 (Oryctolagus cuniculus, UniProt P12530); experiment: biochemical; format: tissue-based, Reticulocytes;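 further: inhibition of 15-lipoxygenase enzyme activity measured with linoleic acid as the substrate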
T3 sequence (P12530 whole entry): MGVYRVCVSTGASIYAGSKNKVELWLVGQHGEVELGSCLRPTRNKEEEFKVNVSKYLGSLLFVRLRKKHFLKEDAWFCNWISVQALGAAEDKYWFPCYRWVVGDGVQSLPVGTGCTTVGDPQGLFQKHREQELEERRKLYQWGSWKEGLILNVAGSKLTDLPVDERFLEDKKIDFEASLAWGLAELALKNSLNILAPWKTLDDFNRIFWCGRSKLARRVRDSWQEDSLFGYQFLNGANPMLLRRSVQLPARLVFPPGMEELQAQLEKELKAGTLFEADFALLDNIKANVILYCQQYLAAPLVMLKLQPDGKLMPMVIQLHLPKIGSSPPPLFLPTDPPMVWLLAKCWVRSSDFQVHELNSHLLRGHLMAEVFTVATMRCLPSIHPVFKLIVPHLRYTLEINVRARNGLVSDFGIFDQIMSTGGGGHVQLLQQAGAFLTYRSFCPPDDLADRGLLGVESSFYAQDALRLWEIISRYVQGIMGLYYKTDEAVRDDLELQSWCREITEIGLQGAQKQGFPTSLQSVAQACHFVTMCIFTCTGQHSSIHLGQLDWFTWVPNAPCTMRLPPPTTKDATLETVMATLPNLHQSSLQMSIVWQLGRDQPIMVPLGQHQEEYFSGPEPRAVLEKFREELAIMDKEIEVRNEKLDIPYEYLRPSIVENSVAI

Estrogen receptor beta = Estrogen receptor beta (Homo sapiens, UniProt Q92731); details: sf9
Estrogen receptor beta, sequence (Q92731 whole entry): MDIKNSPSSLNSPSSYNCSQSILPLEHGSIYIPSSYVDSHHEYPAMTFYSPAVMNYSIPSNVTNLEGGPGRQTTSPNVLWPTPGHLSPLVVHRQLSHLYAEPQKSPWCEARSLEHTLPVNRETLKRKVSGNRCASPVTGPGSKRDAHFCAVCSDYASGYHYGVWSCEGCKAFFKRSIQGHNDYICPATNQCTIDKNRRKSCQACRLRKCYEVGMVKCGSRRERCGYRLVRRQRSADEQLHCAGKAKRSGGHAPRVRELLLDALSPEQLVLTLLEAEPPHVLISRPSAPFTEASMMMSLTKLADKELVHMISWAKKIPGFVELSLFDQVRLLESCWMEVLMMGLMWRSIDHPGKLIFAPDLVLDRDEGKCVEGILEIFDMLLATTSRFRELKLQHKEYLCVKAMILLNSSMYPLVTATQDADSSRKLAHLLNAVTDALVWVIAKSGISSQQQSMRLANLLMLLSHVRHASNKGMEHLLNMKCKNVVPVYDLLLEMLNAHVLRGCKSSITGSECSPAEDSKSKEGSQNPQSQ

[4] = molecular target: C-C chemokine receptor type 2 (Homo sapiens, UniProt P41597); format: cell membranes, CHO-K1, Membrane; details: cho-k1
C-C chemokine receptor type 2, sequence (P41597 whole entry): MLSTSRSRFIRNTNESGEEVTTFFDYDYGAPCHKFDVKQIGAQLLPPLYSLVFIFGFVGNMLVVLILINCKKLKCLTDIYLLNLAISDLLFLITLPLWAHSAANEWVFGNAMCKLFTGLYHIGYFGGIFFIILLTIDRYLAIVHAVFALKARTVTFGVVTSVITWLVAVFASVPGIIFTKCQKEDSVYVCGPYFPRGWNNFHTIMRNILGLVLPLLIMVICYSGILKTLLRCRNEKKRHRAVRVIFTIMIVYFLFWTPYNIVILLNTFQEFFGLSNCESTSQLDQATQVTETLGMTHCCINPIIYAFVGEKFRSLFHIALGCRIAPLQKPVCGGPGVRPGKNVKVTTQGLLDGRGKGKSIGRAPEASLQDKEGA

[5] = molecular target: Tyrosine-protein kinase Fyn (Homo sapiens, UniProt P06241); experiment: biochemical; format: cell-based, Insect cells;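 further: enzymatic inhibition of Fyn kinase activity measured with Poly(Glu:Tyr) as the phosphorylation substrate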
Tyrosine-protein kinase Fyn, sequence (P06241 whole entry): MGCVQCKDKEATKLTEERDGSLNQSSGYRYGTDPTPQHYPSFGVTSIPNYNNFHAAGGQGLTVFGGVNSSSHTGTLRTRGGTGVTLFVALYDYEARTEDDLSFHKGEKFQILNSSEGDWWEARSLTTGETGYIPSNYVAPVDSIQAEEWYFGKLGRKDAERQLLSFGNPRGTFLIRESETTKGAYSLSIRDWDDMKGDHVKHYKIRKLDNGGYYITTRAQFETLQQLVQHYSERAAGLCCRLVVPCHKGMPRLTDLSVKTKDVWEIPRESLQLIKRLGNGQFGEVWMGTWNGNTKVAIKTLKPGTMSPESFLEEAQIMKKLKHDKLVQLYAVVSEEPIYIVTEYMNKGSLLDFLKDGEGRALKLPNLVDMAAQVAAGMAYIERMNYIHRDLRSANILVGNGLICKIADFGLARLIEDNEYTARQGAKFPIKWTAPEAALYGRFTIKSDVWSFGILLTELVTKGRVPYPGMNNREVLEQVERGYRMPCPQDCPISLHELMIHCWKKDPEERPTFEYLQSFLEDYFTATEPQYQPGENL

[6] = molecular target: T4, Cholecystokinin receptor type A (Homo sapiens, UniProt P32238); format: cell membranes, Membrane; details: 1321-n1
T4 sequence (P32238 whole entry): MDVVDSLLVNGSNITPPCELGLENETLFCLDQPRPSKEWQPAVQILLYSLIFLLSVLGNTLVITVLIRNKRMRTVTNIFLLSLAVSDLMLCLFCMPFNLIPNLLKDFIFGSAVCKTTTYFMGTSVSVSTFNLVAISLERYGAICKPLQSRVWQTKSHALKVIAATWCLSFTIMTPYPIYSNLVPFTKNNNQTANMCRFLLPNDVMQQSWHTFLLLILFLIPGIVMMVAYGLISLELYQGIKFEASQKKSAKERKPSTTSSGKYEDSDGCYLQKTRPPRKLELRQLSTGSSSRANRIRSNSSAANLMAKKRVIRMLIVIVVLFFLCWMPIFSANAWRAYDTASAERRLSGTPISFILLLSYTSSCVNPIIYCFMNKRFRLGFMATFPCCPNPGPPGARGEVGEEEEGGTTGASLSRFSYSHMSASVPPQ
Further: in other assays of this panel Not Active means under 50% inhibition at 10 µM.

Delta-type opioid receptor, sequence (P41143 whole entry): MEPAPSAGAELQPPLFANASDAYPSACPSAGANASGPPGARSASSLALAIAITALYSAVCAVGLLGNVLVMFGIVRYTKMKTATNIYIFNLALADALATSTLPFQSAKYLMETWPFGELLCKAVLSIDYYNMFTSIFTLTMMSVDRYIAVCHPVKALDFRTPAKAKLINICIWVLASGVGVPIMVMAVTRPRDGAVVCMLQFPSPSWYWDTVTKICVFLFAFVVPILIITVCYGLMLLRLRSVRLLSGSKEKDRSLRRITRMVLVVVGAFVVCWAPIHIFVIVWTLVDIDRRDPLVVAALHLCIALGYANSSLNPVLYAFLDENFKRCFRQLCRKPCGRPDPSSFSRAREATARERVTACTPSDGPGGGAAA

| SMILES | IC50 [1] | IC50 [2] | IC50 (Cytochrome P450 1A2) | Ki (Cytochrome P450 1A2) | IC50 ([3]; reticulocytes) | IC50 (Estrogen receptor beta) | IC50 [4] | IC50 ([5]; insect cells) | IC50 [6] | IC50 ([3]; read-out: IC50) [µM] | IC50 ([5]; read-out: IC50) [µM] |
| --- | --- | --- | --- | --- | --- | --- | --- | --- | --- | --- | --- |
| COCCc1ccc(OCC(O)CNC(C)C)cc1 (stereo not drawn) [METOPROLOL] | Not Active | Not Active | Not Active | Not Active | Not Active | Not Active | Not Active | Not Active | Not Active |  |  |
| COc1cc2nc(N3CCN(C(=O)C4COc5ccccc5O4)CC3)nc(N)c2cc1OC (stereo not drawn) [DOXAZOSIN] | Not Active | Not Active | Not Active | Not Active | Not Active | Not Active | Not Active | Not Active | Not Active |  |  |
| CC(C)(C)NCC(O)c1cc(Cl)c(N)c(Cl)c1 (stereo not drawn) [CLENBUTEROL] | Not Active | Not Active | Not Active | Not Active | Not Active | Not Active | Not Active | Not Active | Not Active |  |  |
| CCCN1C[C@H](CSC)C[C@@H]2c3cccc4[nH]cc(c34)C[C@H]21 [PERGOLIDE] | Not Active | Not Active | Not Active | Not Active | Not Active | Not Active | Not Active | Not Active | Not Active |  |  |
| CN(C)C(=O)Oc1cc(OC(=O)N(C)C)cc(C(O)CNC(C)(C)C)c1 (stereo not drawn) [BAMBUTEROL] | Not Active | Not Active | Not Active | Not Active | Not Active | Not Active | Not Active | Not Active | Not Active |  |  |
| c1ccc(Nc2ccc(Nc3ccccc3)cc2)cc1 | Not Active | Not Active | Not Active | Not Active |  | Not Active | Not Active | Not Active | Not Active | 2.88 |  |
| Cc1cc(C(C#N)c2ccc(Cl)cc2)c(Cl)cc1NC(=O)c1cc(I)cc(I)c1O (stereo not drawn) [CLOSANTEL] | Not Active | Not Active | Not Active | Not Active | Not Active | Not Active | Not Active |  | Not Active |  | 0.939 |
| Cc1ccc2cc3c(ccc4ccccc43)c3c2c1CC3 [3-METHYLCHOLANTHRENE] | Not Active | Not Active |  |  | Not Active | Not Active | Not Active |  | Not Active |  | 25.2 |
| Nc1nc2c(ncn2CCC(CO)CO)c(=O)[nH]1 [PENCICLOVIR] | Not Active | Not Active | Not Active | Not Active | Not Active | Not Active | Not Active | Not Active | Not Active |  |  |
| CC1Cc2ccccc2N1NC(=O)c1ccc(Cl)c(S(N)(=O)=O)c1 (stereo not drawn) [INDAPAMIDE] | Not Active | Not Active | Not Active | Not Active |  | Not Active | Not Active | Not Active | Not Active | 2.92 |  |
